Where two headings read alike, the source gives them in different places.
Assays:
rodent model of diabetes = test system: rodent model of diabetes; design: method as in PMID 20000679; conditions: ref 36; cited from earlier work
GBA2 = conditions: ref 15; cited from earlier work
C57BL6J mice [1] = test: Testis histology (H&E) after 35 days oral dosing; type: in vivo, mouse; conditions: 15, 25 or 50 mg/kg, oral daily
Procedure: (§1) Groups of six mice, each, were used for three different doses of NB-DNJ or NB-DGJ formulated in milliQ water at 50 mg/kg, 25 mg/kg and 15 mg/kg, respectively. Control groups were given an equivalent volume of water. Animals were given compound or control once daily for 35 consecutive days via oral gavage using animal feeding needles (Biomedical Needles, Popper, NY, USA). Body weight was noted every week for all treatment groups. Mice were euthanized at the end of a 35 days dosing regimen using CO2 asphyxia followed by cervical dislocation. Testes were harvested, weighed and stored in Bouin’s fixative for 48 h, then sliced into two halves, and stored in fresh Bouin’s for another 24 h. The tissue slices were then rinsed in 70% ethanol and processed and stained for histology using a standard protocol for Hematoxylin and eosin staining. Spermatids with elongated and abnormally shaped heads were counted per 20 fields and average number calculated for 6 mice/group.

[2] = design: method as in PMID 17624027; conditions: male and female CD rats, oral [3H]-NB-DNJ 160 mg/kg, cited from earlier work
human subjects = test system: human subjects; design: method as in PMID 17067996, PMID 10801168, PMID 7905523; conditions: ref 25, 26, 27; cited from earlier work
C57BL6J mice [3] = test: Epididymal sperm acrosome morphology (FITC-PSA staining) after 35 days oral dosing; type: in vivo, mouse; conditions: 15, 25 and 50 mg/kg oral daily
Procedure: as §1
For sperm retrieval, epididymis was removed from the animal and placed in Petri dish. One mL of capacitation buffer (Capacitation buffer consisted of 110 mM NaCl, 2.68 mM KCl, 0.36 mM NaH2PO4, 25 mM NaHCO3, 0.49 mM MgCl2, 2.40 mM CaCl2, 25 mM HEPES, 5.50 mM Glucose, 1 mM Pyruvic acid, pH 7.4; Tash and Bracho, 1998) at room temperature was added to the dish. Using forceps, the caput of the epididymis was held in place and the cauda sliced repeatedly with a razor blade. The spermatozoa were allowed to disperse for 15 min with gentle swirling intermittently. A 100 µL aliquot of the sperm suspension was dropped onto a standard glass microscope slide (Fisherbrand superfrost microscope slides 25 × 75 × 1.0 mm)) and smeared with side of pipette tip. The slides were air dried flat for 1 h at room temperature. The sperm smear was fixed in methanol for 2 min. The sperm smear was than stained using FITC-PSA (Fluorescein isothiocyanate Pisum Sativum Agglutinin; Vector Laboratories, Burlingame, CA) was diluted 1:7000 in PBS containing 1:10,000 DAPI dihydrochloride, FluoroPure™ grade, Invitrogen) (≥98% pure) to make the stock solution. To each slide, 100 µL of FITC-PSA was added and spread out with edge of pipette tip to cover the dried sperm smear. The slides were incubated at 37 °C for 10 min, and then washed with 5 changes of PBS for 5 min each. The slides were air-dried and mounted with 20 µL Vectashield mounting medium for fluorescence (Vector Laboratories, Burlingame, CA, USA) and observed. Slides were viewed on a Nikon IX-81 microscope under a 40× objective using FITC and DAPI filter to visualize acrosome morphology. The phase contrast images were also collected at the same magnification to compare morphological details.

male CD rats = test: Rat mating trial (fertility); type: in vivo; conditions: 15 mg/kg/day oral, 35 days; data not presented
Procedure: Eighteen adult male CD rats were divided into three groups of six rats each. One group of six CD rats was treated with vehicle (distilled water containing 0.9% benzyl alcohol) via oral gavage (5 mL/kg/day), and the second group (6 rats) was treated with NB-DGJ (in distilled water containing 0.9% benzyl alcohol) via oral gavage at 150 mg/kg/day (in approximately 5 mL/kg of water) daily for 35 consecutive days. The third group (6 rats) was treated with 15 mg/kg NB-DNJ in distilled water containing 0.9% benzyl alcohol) via oral gavage (in approximately 5 mL/kg of water) daily for 35 consecutive days (Figure S5).
Rats were weighed on day 0 (first day of dosing) and weekly thereafter. Dosages were adjusted based on the most recent body weight. Males were cohabited with untreated females (one male per two females) weekly at weeks 1 through 9 [38, 39]. Females were necropsied seven days after separation from males to determine the numbers of implantation sites. Individual male rats were bled from the tail vein at weeks 0, 1, 4, and 7 and serum was harvested by centrifugation. At week 11, the male rats were weighed, anesthetized, and exsanguinated. Sera were analyzed for inhibin B by ELISA (enzyme-linked immunosorbent assay), and rat follicle stimulating hormone (rFSH) and testosterone by radioimmunoassay. Testes, epididymides, ventral prostates, and seminal vesicles were excised and weighed. The left testis was homogenized, and spermatid head counts obtained.
Statistical analysis using the Student’s t-test was performed on body weights, paired testes weights, ventral prostrate weights, seminal vesicle weights, paired epididymal weights, spermatid head counts, percent motile and normal epididymal sperm. We used analysis of variance (ANOVA) for serum inhibin B, rFSH, and testosterone, since these measurements were repeated throughout the study period. The effect of NB-DNJ at 15 mg/kg/day dose in the rat model was studied following the same protocol as that for NB-DGJ.

C57BL/6 mice = conditions: cited from earlier work
[4] = C57BL/6 mice, daily oral 15 mg/kg

OC[C@@H]1[C@@H](O)[C@H](O)[C@@H](O)CN1CCCCCOCC12CC3CC(CC(C3)C1)C2
Control of hyperglycemia (in words) (rodent model of diabetes): potently control hyperglycemia

CCCCN1C[C@H](O)[C@@H](O)[C@H](O)[C@H]1CO [NB-DNJ, N-butyldeoxynojirimycin]
Testis histology, spermatid heads (in words) (C57BL6J mice [1]): rounded, abnormally shaped spermatid heads | Cmax [2]: 13,800 ng/mL | tmax [2]: 0.5 h | t½ [2]: 4.5 h | Cmax ([2]; read-out: Cmax in molar units): ~63 µM | Effect in human subjects (sperm counts, semen parameters) (human subjects): no effect | Sperm acrosome morphology (in words) (C57BL6J mice [3]): abnormal acrosome in all spermatozoa | Effect on fertility in mating trial (in words) (male CD rats): did not show effect on fertility by week 6 | Time to return of fertility after cessation (C57BL/6 mice; C57BL/6 mice, 15 mg/kg): three weeks | Effect on fertility (in words) (C57BL/6 mice; [4]): Reversible inhibition of fertility | Time of daily dosing until inhibition of fertility was observed (C57BL/6 mice; [4]): three weeks | Strain/species specificity of male contraceptive activity (in words) (C57BL/6 mice; ref 24): only effective as a male contraceptive in C57BL/6 and C57BL/6-related mice
